Laboratory results: article PMC10804683, “Identification of the pyridoxal 5′‐phosphate allosteric site in human pyridox(am)ine 5′‐phosphate oxidase” (Protein Science : A Publication of the Protein Society, 2024)
Substitutions are numbered along the chain they refer to. “Also recorded” adds a separate entry of the source.

Assays:
[1] = target: T1, human PNPO F48A variant (holo-enzyme) (Homo sapiens, UniProt Q9NVS9, F48A); test: PLP binding by FMN fluorescence changes, holo F48A; details: 100 nM enzyme, read-out: PLP binding KD^FLUO
T1 construct: a main form corresponding to the entire protein; made in house; host or cells: E. coli BL21(DE3)
T1 sequence (Q9NVS9 1-261 F48A): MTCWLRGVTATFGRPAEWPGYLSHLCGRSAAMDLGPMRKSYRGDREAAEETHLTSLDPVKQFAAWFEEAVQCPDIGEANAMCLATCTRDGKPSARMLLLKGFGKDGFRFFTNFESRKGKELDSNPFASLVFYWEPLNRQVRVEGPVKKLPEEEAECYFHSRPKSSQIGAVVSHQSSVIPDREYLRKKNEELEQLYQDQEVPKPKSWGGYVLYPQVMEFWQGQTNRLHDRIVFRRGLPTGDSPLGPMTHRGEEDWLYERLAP
Description: (§1) PLP binding to PNPO can be detected and quantitatively measured using differential scanning fluorimetry (DSF) and also by measuring FMN fluorescence changes. We had previously attributed DSF changes to PLP binding at the active site, while FMN fluorescence changes were attributed to PLP binding at the allosteric site (Barile et al., [2019], [2020]). Previous experiments carried out with the PNPO R161C variant, affecting a residue that is essential for substrate binding and catalysis (and therefore also for PLP binding at the active site), confirms that DSF measurements only report PLP binding at the active site (Barile et al., [2021]; Table 1). […] We expected to observe no FMN fluorescence changes upon titration of the variants with PLP. However, this was not the case, and the dissociation constant values obtained by observing the FMN fluorescence emission were only up to threefold larger in the variants with respect to wild type PNPO (Figure 3). […] To check the second possibility, we measured intrinsic fluorescence changes of wild type and variant apo‐forms (i.e., without FMN) upon PLP titration. […]
(§2) Analyses of PLP binding, based on FMN fluorescence increase observed upon binding of PLP to PNPO, were performed as described in Barile et al. ([2020]). […] Emission spectra were recorded from […], with excitation and emission slits set at 3 and 5 nm, respectively. […]

apo-PNPO F48A/E50L/R258L = target: T2, apo-PNPO F48A/E50L/R258L (Homo sapiens, UniProt Q9NVS9, E50L/F48A/R258L); test: PLP binding by intrinsic fluorescence, apo triple variant; details: excitation 280 nm, 100 nM enzyme
T2 construct: a main form corresponding to the entire protein; made in house; host or cells: E. coli BL21(DE3)
T2 sequence (Q9NVS9 1-261 F48A/E50L/R258L): T1 sequence (Q9NVS9 1-261 F48A) with E50L, R258L
Description: as §1, §2

[2] = target: T3, apo-PNPO F48A/E50L/R161C/R258L (Homo sapiens, UniProt Q9NVS9, E50L/F48A/R161C/R258L); test: PLP binding by intrinsic fluorescence, apo F48A/E50L/R161C/R258L; details: excitation 280 nm, 100 nM enzyme
T3 construct: together with a main form corresponding to the entire protein (estimated molecular mass of 31.0 ± 0.7 kDa); made in house; host or cells: E. coli BL21(DE3)
T3 sequence (Q9NVS9 1-261 F48A/E50L/R161C/R258L): T1 sequence (Q9NVS9 1-261 F48A) with E50L, R161C, R258L
Description: as §1, §2

human PNPO wild type = target: T4, human PNPO wild type (Homo sapiens, UniProt Q9NVS9); set-up: a main form corresponding to the entire protein; made in house; host or cells: E. coli BL21(DE3); method as in Barile et al. ([2020]); details: DSF, ref Barile et al. ([2020]), read-out: PLP binding KD^DSF; cited from earlier work
T4 sequence (Q9NVS9 1-261): T1 sequence (Q9NVS9 1-261 F48A) with A48F

[3] = target: T5, human PNPO F48A/E50L/R161C/R258L variant (holo-enzyme) (Homo sapiens, UniProt Q9NVS9, E50L/F48A/R161C/R258L); test: PLP binding by fluorescence, F48A/E50L/R161C/R258L (35% FMN-saturated); details: text: titrated by exciting at 280 nm
T5 construct: a main form corresponding to the entire protein; made in house; host or cells: E. coli BL21(DE3)
T5 sequence (Q9NVS9 1-261 F48A/E50L/R161C/R258L): T1 sequence (Q9NVS9 1-261 F48A) with E50L, R161C, R258L
Description: as §1, §2

For Cc1ncc(COP(=O)(O)O)c(C=O)c1O [PLP, pyridoxal 5′‐phosphate], the Kd [1] was 1460 ± 90 nM, the “Apo-enzyme PLP binding KD^FLUO” value (apo-PNPO F48A/E50L/R258L) was “no change in fluorescence was observed; also recorded: No binding” and the “Apo-enzyme PLP binding KD^FLUO” value [2] was “no variation in the emitted fluorescence was observed; also recorded: No binding”. The Kd (human PNPO wild type) was 3200 ± 200 nM and the “PLP binding KD^FLUO” value [3] was “no variation in the emitted fluorescence was observed; also recorded: No binding”.
